Entries after “also recorded” stand apart in the source; their conditions may differ.
Tests used:
[1] = system: PP tumors (Pten−/−; Trp53−/−); test: PP tumor growth after intratumoral injection of PBM or PP cells plus olaparib; type: in vivo, mouse; conditions: 10^6 cells IT on day 1, 5, 9; olaparib 50 mg/kg/day IP from day 1
Method: All animal experiments described in this study were performed according to the animal protocols approved by the DFCI Institutional Animal Care and Use Committee. Pten^−/−; Trp53^−/− (termed PP) mammary epithelial tumor cells were derived from syngeneic FVB/N genetically engineered mouse model of breast tumors driven by concurrent loss of PTEN and P53 (K14-Cre/Pten^L/L, Trp53^L/L). 10^6 PP cells in 100 μl of 40% Matrigel® Matrix (Corning) in DMEM were injected into the mammary fat pad of FVB/N1 mice. When tumors were about 100-200 mm^3 in volume, three injections of 10^6 of Trp53^−/−; Brca1^−/−; c-Myc (termed PBM) ovarian surface epithelial tumor cells or PP cells were administered intraturnorally (IT) on day 1, 5, and 9, respectively. Mice were also administered 50 mg/kg/day of olaparib (AZD2281) in 10% DMSO via intraperitoneal injection (IP) from day 1. Olaparib was prepared by diluting 100 mg/ml stocks in DMSO with 10% of 2-hydroxyl-propyl-β-cyclodextrine (Sigma) in PBS. In another cohort of PP tumor, two doses of DMXAA (Sigma, 500 μg/dose) resuspended in 7.5% of NaHCO3 or vehicle control were injected IT over a one-week period. Tumor volume was calculated using the formula: V=0.52×length×width×width.

[2] = system: PPM tumors (Trp53−/−; Pten−/−; c-Myc); test: Orthotopic PPM tumor growth (bioluminescence); conditions: mouse, in vivo
Method: All animal experiments described in this study were performed according to the animal protocols approved by the DFCI Institutional Animal Care and Use Committee. Brca1^loxP/loxP [FVB/N] mice, bearing loxP sites in introns 4 and 13 of the Brca1 gene, and Trp53^loxP/loxP[FVB/N] mice bearing loxP in introns 2 and 10 of the p53 gene, were obtained from Dr. Jos Jonkers's laboratory (Netherlands Cancer Institute, Amsterdam, The Netherlands). These mice were intercrossed through multiple generations to create a colony of homozygous Trp53^loxP/loxP/Brca1^loxP/loxP double conditional knockout mice. Ovaries were harvested from 8-week-old female Trp53^loxP/loxP/Brca1^loxP/loxP mice. The ovaries were washed twice with phosphate-buffered and incubated in DMEM/F12 (Ham's) medium containing collagenase and dispase (stem cell technologies) for 40 min at 37° C. […]
(§1) Single cells were obtained by digestion of primary ovarian tumors in collagenase buffer and then cultured in MOT media (DMEM/F12, 0.6% FBS, 10 ng/ml EGF, hydrocortisone 1 μg/ml, cholera toxin 1 ng/ml, 100 μg/ml penicillin-streptomycin, 5 μM Y27632). […] The endpoints were determined by tumor burden and ascites. […]

[3] = system: PBM tumors (Trp53−/−; Brca1−/−; c-Myc); test: Orthotopic PBM tumor allograft growth and survival (bioluminescence); type: in vivo, mouse
Method: All animal experiments described in this study were performed according to the animal protocols approved by the DFCI Institutional Animal Care and Use Committee. Brca1^loxP/loxP [FVB/N] mice, bearing loxP sites in introns 4 and 13 of the Brca1 gene, and Trp53^loxP/loxP[FVB/N] mice bearing loxP in introns 2 and 10 of the p53 gene, were obtained from Dr. Jos Jonkers's laboratory (Netherlands Cancer Institute, Amsterdam, The Netherlands). These mice were intercrossed through multiple generations to create a colony of homozygous Trp53^loxP/loxP/Brca1^loxP/loxP double conditional knockout mice. Ovaries were harvested from 8-week-old female Trp53^loxP/loxP/Brca1^loxP/loxP mice. The ovaries were washed twice with phosphate-buffered and incubated in DMEM/F12 (Ham's) medium containing collagenase and dispase (stem cell technologies) for 40 min at 37° C. The epithelial cells were pelleted by centrifugation at 800×g and cultured in DMEM/F12 (Life Technologies) supplemented with 4% (vol/vol) FBS, 1% penicillin/streptomycin, 10 ng/mL EGF, 5 μg/mL insulin, 5 Cpg/mL transferrin, and 5 ng/mL sodium selenite. Ovarian surface epithelial (OSE) cells were cultured for 48 hr and then introduced with Adeno-Cre (University of Iowa) and lentiviruses expressing C-Myc gene (Addgene #36980) or control GFP. After two days of infection in vitro, OSE cells are aggregated and implanted into recipient mice. About 5×10^5 OSE cells (Trp53^−/−; Brca1^−/−; c-Myc) were injected into the right ovarian bursal cavities of 6- to 7-week-old female nude mice. In each mouse, the left ovarian bursa was injected with GFP-expressing OSE cells (Trp53^−/−; Brca1^−/−; GFP). PBM (Trp53^−/−; Brca1^−/−; c-Myc) ovarian tumors developed within three to six months after implantation of the genetically engineered OSE cells. The primary ovarian tumors were digested and orthotopically transplanted to FVB/NJ mice. The PPM GEM model (Trp53^−/−; Pten^−/−; c-Myc) was developed with OSE cells isolated from homozygous Trp53^loxP/loxP/Pten^loxP/loxP(FVB/NJ) double conditional knockout mice using the same strategy for generation of the PBM GEM model described above. For histological analysis, tumor pieces were fixed in 10% Formalin overnight and transferred to 70% ethanol. Embedding, sectioning and H&E staining was performed by scientists at the Harvard rodent histopathology core facility. The histological characteristics of high grade ovarian tumor were confirmed by two independent pathologists at Harvard Medical School.
as §1

O=C(c1cc(Cc2n[nH]c(=O)c3ccccc23)ccc1F)N1CCN(C(=O)C2CC2)CC1 [olaparib, Olaparib]
PP tumor growth [1]: suppressed the growth of PP tumors
progression of Brca-proficient PPM tumors [2]: little effect and not
tumor growth / tumor progression (tumor burden by bioluminescence) ([3]; PBM tumor-bearing FVB mice, olaparib 50 mg/kg daily i.p., anti-PD-1 250 μg/mouse i.p. every 3 days): significantly delayed tumor progression; also recorded: delayed tumor growth; also recorded: effectively inhibit the growth
therapeutic effect of olaparib in Rag1−/− host mice ([3]; PBM tumors in Rag1−/− vs wild-type FVB mice): partially abrogated
survival of PBM tumor-bearing mice ([3]; mouse, in vivo): significantly prolonged the survival; also recorded: eventually succumbed to the disease

— patent publication US20200268864A1, “CANCER VACCINE COMPOSITIONS AND METHODS FOR USING SAME TO TREAT CANCER” (Dana-Farber Cancer Institute, Inc., priority 2017, published 2020)
